Assay results from patent US11571423B2, “Small molecule modulators of human sting” (Curadev Pharma Limited, priority 2017, dated 2023).
Where two headings read alike, the source gives them in different places.

Key:
NF-κB pathway = experiment: Reporter gene expression assay in THP1-Dual cells, NFkB axis (secreted SEAP); type: cell-based, human; conditions: 20 hr stimulation, EC50 range class, read-out: THP-NFκB activity
Method in brief: (§1)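 Human THP-1 monocyte-derived cells with two inducible reporters: 5×10^5 cells seeded and stimulated with compounds for 20 hr. SEAP (QUANTI-Blue) and Lucia luciferase (QUANTI-Luc) measured in supernatant; EC50 values reported as ranges.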

hSTING(HAQ) = hSTING(HAQ) (Homo sapiens, UniProt Q86WV6, G230A/H232R/R293Q/R71H); experiment: Luciferase reporter assay in HEK293T-hSTING-Luciferase cells, HAQ polymorph; type: cell-based; conditions: HAQ polymorph of human STING, EC50 range class
Method in brief: (§2)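 HEK293T cells stably co-express the hSTING variant (hEF1-HTLV promoter) and an ISRE/ISG54 IRF-inducible luciferase reporter. Clones with minimal ligand-independent activation were used. Cells were stimulated with compounds for 20 hr, and secreted luciferase in the supernatant was read by luminescence to give EC50.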

[1] = target: cynomolgus monkey STING protein (Macaca fascicularis, UniProt A0A2R3XZA6); experiment: Luciferase reporter assay, cynomolgus monkey STING overexpressed in HEK293T cells; type: cell-based; conditions: cynomolgus monkey STING overexpressed in HEK293T cells; read-out: Cynomolgus monkey STING activity (EC50 range)
Method in brief: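 HEK293T cells overexpressing cynomolgus STING with a secreted luciferase reporter were stimulated with compound for 20 hr. Supernatant reporter activity was then measured by Quanti-Luc luminescence, and EC50 values were derived.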

IRF pathway = experiment: Reporter gene expression assay in THP1-Dual cells, IRF axis (secreted Lucia luciferase); type: cell-based, human; conditions: 20 hr stimulation, EC50 range class, read-out: THP-IRF activity
Method in brief: as §1

hSTING(R232) = hSTING(R232) (Homo sapiens, UniProt Q86WV6, H232R); experiment: Luciferase reporter assay in HEK293T-hSTING-Luciferase cells, R232 (wild type) human STING; type: cell-based; conditions: 20 hr stimulation, read-out: R232 human activity (EC50 range)
Method in brief: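 Clonal HEK293T cells stably expressing STING from a pUNO-1 plasmid plus an ISRE/ISG54-driven secreted luciferase reporter; 5×10^5 cells stimulated with compound for 20 hr. Supernatant luciferase read by luminescence, giving fold-induction over baseline and EC50.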

hSTING(H232) = hSTING(H232) (Homo sapiens, UniProt Q86WV6); experiment: Luciferase reporter assay in HEK293T-hSTING-Luciferase cells, H232/REF polymorph; type: cell-based; conditions: H232/REF polymorph of human STING, EC50 range class
Method in brief: as §2

Measured: EC50

Chain of hSTING(H232) (Q86WV6 whole entry): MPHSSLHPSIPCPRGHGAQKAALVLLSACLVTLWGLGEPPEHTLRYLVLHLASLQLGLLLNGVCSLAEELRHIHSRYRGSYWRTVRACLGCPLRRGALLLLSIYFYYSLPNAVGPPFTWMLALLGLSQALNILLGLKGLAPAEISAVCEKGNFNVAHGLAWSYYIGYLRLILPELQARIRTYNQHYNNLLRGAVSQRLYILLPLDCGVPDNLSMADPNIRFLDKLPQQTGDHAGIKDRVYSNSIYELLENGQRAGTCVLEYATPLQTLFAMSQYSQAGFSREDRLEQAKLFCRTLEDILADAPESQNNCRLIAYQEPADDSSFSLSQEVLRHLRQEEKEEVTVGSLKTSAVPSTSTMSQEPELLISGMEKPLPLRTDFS
Chain of hSTING(HAQ) (Q86WV6 whole entry R71H/G230A/H232R/R293Q): as the sequence (Q86WV6 whole entry) above, with R71H, G230A, H232R, R293Q counted along it
Chain of hSTING(R232) (Q86WV6 whole entry H232R): as the sequence (Q86WV6 whole entry) above, with H232R counted along it
Chain of cynomolgus monkey STING protein (A0A2R3XZA6 entry or part of it): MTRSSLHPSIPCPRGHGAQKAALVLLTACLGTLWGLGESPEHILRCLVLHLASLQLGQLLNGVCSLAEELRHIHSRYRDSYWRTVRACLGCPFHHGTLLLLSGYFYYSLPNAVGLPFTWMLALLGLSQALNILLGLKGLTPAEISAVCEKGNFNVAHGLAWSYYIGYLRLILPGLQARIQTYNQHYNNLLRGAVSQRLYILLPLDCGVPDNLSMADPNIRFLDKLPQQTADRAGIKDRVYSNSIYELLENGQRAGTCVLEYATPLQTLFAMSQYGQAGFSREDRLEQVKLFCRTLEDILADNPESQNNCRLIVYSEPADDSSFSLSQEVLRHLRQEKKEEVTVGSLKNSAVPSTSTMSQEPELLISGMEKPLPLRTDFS

C[C@H]1c2ccc(C(=O)NCc3c(F)cc(F)cc3F)cc2N(Cc2c(F)ccc(C(N)=O)c2F)C(=O)N1C [Example 141, (S)-1-(3-Carbamoyl-2,6-difluorobenzyl)-3,4-dimethyl-2-oxo-N-(2,4,6-trifluorobenzyl)-1,2,3,4-tetrahydroquinazoline-7-carboxamide]
< 1000 nM: NF-κB pathway; Homo sapiens | hSTING(HAQ) | [1] | IRF pathway; Homo sapiens | hSTING(R232) | hSTING(H232)

C[C@H]1c2ccc(C(=O)NCc3c(F)cc(F)cc3F)cc2N(Cc2c(F)cc(OC[C@@H](O)CO)cc2F)C(=O)N1C [Example 147, (S)-1-(4-((S)-2,3-Dihydroxypropoxy)-2,6-difluorobenzyl)-3,4-dimethyl-2-oxo-N-(2,4,6-trifluorobenzyl)-1,2,3,4-tetrahydroquinazoline-7-carboxamide]
< 1000 nM: NF-κB pathway; Homo sapiens | hSTING(HAQ) | [1] | IRF pathway; Homo sapiens | hSTING(R232) | hSTING(H232)

COc1cccc(F)c1CN1C(=O)N(C)C(C)c2ccc(C(=O)NCc3c(F)cc(F)cc3F)cc21 (stereo not drawn) [Example 154, 1-(2-fluoro-6-methoxybenzyl)-3,4-dimethyl-2-oxo-N-(2,4,6-trifluorobenzyl)-1,2,3,4-tetrahydroquinazoline-7-carboxamide]
< 1000 nM: NF-κB pathway | hSTING(HAQ) | [1] | IRF pathway | hSTING(R232) | hSTING(H232)

Cc1cccc(F)c1CN1C(=O)N(C)C(C)c2ccc(C(=O)NCc3c(F)cc(F)cc3F)cc21 (stereo not drawn) [Example 162, 1-(2-fluoro-6-methylbenzyl)-3,4-dimethyl-2-oxo-N-(2,4,6-trifluorobenzyl)-1,2,3,4-tetrahydroquinazoline-7-carboxamide]
< 1000 nM: NF-κB pathway; Homo sapiens | hSTING(HAQ) | [1] | IRF pathway; Homo sapiens | hSTING(R232) | hSTING(H232)

Cc1ccc(Cl)c(CN2C(=O)N(C)[C@@H](C)c3ccc(C(=O)NCc4c(F)cc(F)cc4F)cc32)c1F [Example 169, (S)-1-(6-chloro-2-fluoro-3-methylbenzyl)-3,4-dimethyl-2-oxo-N-(2,4,6-trifluorobenzyl)-1,2,3,4-tetrahydroquinazoline-7-carboxamide]
< 1000 nM: NF-κB pathway; Homo sapiens | hSTING(HAQ) | [1] | IRF pathway; Homo sapiens | hSTING(R232) | hSTING(H232)

C[C@H]1c2ccc(C(=O)NCc3c(F)cc(F)cc3F)cc2N(Cc2c(Cl)ccc(F)c2F)C(=O)N1C [Example 177, (S)-1-(6-chloro-2,3-difluorobenzyl)-3,4-dimethyl-2-oxo-N-(2,4,6-trifluorobenzyl)-1,2,3,4-tetrahydroquinazoline-7-carboxamide]
< 1000 nM: NF-κB pathway; Homo sapiens | hSTING(HAQ) | [1] | IRF pathway; Homo sapiens | hSTING(R232) | hSTING(H232)

C[C@H]1c2ccc(C(=O)NCc3c(F)cc(F)cc3F)cc2N(Cc2c(F)ccc(F)c2Cl)C(=O)N1C [Example 179, (S)-1-(2-chloro-3,6-difluorobenzyl)-3,4-dimethyl-2-oxo-N-(2,4,6-trifluorobenzyl)-1,2,3,4-tetrahydroquinazoline-7-carboxamide]
< 1000 nM: NF-κB pathway; Homo sapiens | hSTING(HAQ) | [1] | IRF pathway; Homo sapiens | hSTING(R232) | hSTING(H232)

Cc1nccc(CN2C(=O)N(C)C(C)c3ccc(C(=O)NCc4c(F)cc(F)cc4F)cc32)c1F (stereo not drawn) [Example 180, 1-((3-fluoro-2-methylpyridin-4-yl)methyl)-3,4-dimethyl-2-oxo-N-(2,4,6-trifluorobenzyl)-1,2,3,4-tetrahydroquinazoline-7-carboxamide]
< 1000 nM: NF-κB pathway; Homo sapiens | hSTING(HAQ) | [1] | IRF pathway; Homo sapiens | hSTING(R232) | hSTING(H232)

C[C@H]1c2ccc(C(=O)NCc3c(F)cc(F)cc3F)cc2N(Cc2c(N)cccc2F)C(=O)N1C [Example 182, (S)-1-(2-amino-6-fluorobenzyl)-3,4-dimethyl-2-oxo-N-(2,4,6-trifluorobenzyl)-1,2,3,4-tetrahydroquinazoline-7-carboxamide]
< 1000 nM: NF-κB pathway; Homo sapiens | hSTING(HAQ) | [1] | IRF pathway; Homo sapiens | hSTING(R232) | hSTING(H232)
